Test results: PMC8471306, “Chemical Changes of Hydroperoxy-, Epoxy-, Keto- and Hydroxy-Model Lipids under Simulated Gastric Conditions” (Foods, 2021)
Several values for one entry are separate records, joined by “and”; a condition that tells them apart may be missing. Equal entries are not always repeated. Entries after “also recorded” stand apart in the source; their conditions may differ.

Key:
[1] = rat, in vivo; cited from earlier work
[2] = In vitro simulated gastric digestion of model lipid emulsions in SGF, quantitation by GC-FID; type: in vitro ADME
Description: Emulsions of model lipid compounds were prepared in a simulated gastric fluid (SGF) formulated as described in the United States Pharmacopeia. SGF contained 3.2% w/v pepsin in 0.03 M NaCl and 0.1 M HCl (pH 1.2). Different sample solutions of model lipid compounds in SGF were prepared and methyl C21:0 was added as an internal standard (IS) for quantitative purposes. Homogenization was performed in an Omnimixer (Sorvall, Newton, PA, USA) at 10,000 rpm for 5 min at 1-min intervals, as described elsewhere. […] Samples of 1, 2, 3 and 4 mL (~16 μmol mL^−1 of each compound) were used. • - Two methyl 9,10-epoxysteatate emulsions, i.e., 5 and 15 mg mL^−1, both with 10 mg mL^−1 of the IS, in SGF. Samples of 1, 2, 3 and 4 mL (16 and 46 μmol mL^−1) were used. • - Three methyl linoleate hydroperoxides emulsions, i.e., 5, 7.5 and 10 mg mL^−1, with 1, 1.5 and 2 mg mL^−1 of the IS, respectively. Additional methyl hydroperoxides emulsions at the same concentrations were prepared adjusting the pH to 3.0 and 6.6 with 1 M NaHCO3. Samples of 4 mL (15.3, 23.0 and 30.6 μmol mL^−1) were used.
Gastric digestion was simulated using a classical in vitro model. Emulsions of lipid model compounds prepared as described in Section 2.3. were used for digestion assays immediately after preparation. Triplicate emulsions were incubated in a shaking water bath for 3 h at 37 °C/100 rpm.
Lipids were thoroughly extracted with 1:1 hexane:diethyl ether after vigorous shaking in a vortex and centrifugation at 2000 rpm. Hexane and diethyl ether have been previously used for lipid extraction of oil-in-water emulsions. The extraction procedure was repeated three times and the organic extracts were pooled and washed with distilled water. After filtration through anhydrous sodium sulfate, the solvent was evaporated in a rotatory evaporator under reduced pressure at room temperature and the extracted lipids were dried using a stream of nitrogen.
Initial and digested samples were analyzed by gas-liquid chromatography using an HP 6890 Series chromatograph (Hewlett-Packard, Avondale, PA, USA) equipped with a split-splitless injector operating in the split mode with a 40:1 split ratio at 250 °C, a J&W DB-Wax fused-silica capillary column, 60 m × 0.25 mm I.D., film thickness 0.25 μm (J&W Scientific, Folsom, CA, USA) and a flame ionization detector that was used at 250 °C. The analyses were run using hydrogen as carrier gas at 1 mL min^−1 and under isothermal conditions using 230 °C for 25 min. Injections were carried out automatically using a 6890 Series autosampler (Agilent Technologies, Karlsruhe, Germany). A volume of 1 μL of sample dissolved in diethyl ether (~5 mg mL^−1) was analyzed.

[3] = equimolar mixture, 16 μmol mL^−1 each, sample volume 1 mL, SGF pH 1.2, 3 h 37 °C
[4] = equimolar mixture, 16 μmol mL^−1 each, sample volume 2 mL, SGF pH 1.2, 3 h 37 °C
[5] = equimolar mixture, 16 μmol mL^−1 each, sample volume 3 mL, SGF pH 1.2, 3 h 37 °C
[6] = equimolar mixture, 16 μmol mL^−1 each, sample volume 4 mL, SGF pH 1.2, 3 h 37 °C
[7] = tested alone, initial 15.79 μmol mL^−1, sample volume 1 mL, SGF pH 1.2
[8] = tested alone, initial 15.79 μmol mL^−1, sample volume 2 mL, SGF pH 1.2
[9] = tested alone, initial 15.79 μmol mL^−1, sample volume 3 mL, SGF pH 1.2
[10] = tested alone, initial 15.79 μmol mL^−1, sample volume 4 mL, SGF pH 1.2
[11] = tested alone, initial 46.03 μmol mL^−1, sample volume 1 mL, SGF pH 1.2
[12] = tested alone, initial 46.03 μmol mL^−1, sample volume 2 mL, SGF pH 1.2
[13] = tested alone, initial 46.03 μmol mL^−1, sample volume 3 mL, SGF pH 1.2
[14] = tested alone, initial 46.03 μmol mL^−1, sample volume 4 mL, SGF pH 1.2

## linoleic acid hydroperoxides
[1]
  Share decomposed to a variety of compounds in the stomach: about 70%

## CCCCCCC(O)CCCCCCCCCCC(=O)OC (centres unmarked) [methyl 12-hydroxystearate]
[2]; [3]
  Final Concentration: 15.92 ± 0.40 c μmol mL^−1
[2]; [4]
  Final Concentration: 15.45 ± 1.03 c μmol mL^−1
[2]; [5]
  Final Concentration: 16.13 ± 0.39 c μmol mL^−1
[2]; [6]
  Final Concentration: 15.51 ± 1.13 c μmol mL^−1

## CCCCCCC(=O)CCCCCCCCCCC(=O)OC [methyl 12-oxostearate]
[2]; equimolar mixture, 16 μmol mL^−1 each, 1-4 mL, SGF pH 1.2
  Change after simulated gastric digestion (in words): remained unaltered; also recorded: remained at the starting levels
[2]; [3]
  Final Concentration: 16.11 ± 0.21 c μmol mL^−1
[2]; [4]
  Final Concentration: 15.80 ± 0.37 c μmol mL^−1
[2]; [5]
  Final Concentration: 15.88 ± 0.73 c μmol mL^−1
[2]; [6]
  Final Concentration: 16.15 ± 0.58 c μmol mL^−1

## CCCCCCCCC1OC1CCCCCCCC(=O)OC (stereo not drawn) [methyl 9,10-epoxystearate, Methyl trans-9,10-epoxystearate]
[2]; all concentrations and sample volumes tested, SGF pH 1.2
  Losses after in vitro gastric digestion, range over all samples: 17.8–58.8%
[2]; [3]
  Final Concentration: 7.52 ± 0.73 a μmol mL^−1
  Loss % after Digestion: 52.7 ± 4.6 B %
[2]; [4]
  Final Concentration: 7.79 ± 0.65 ab μmol mL^−1
  Loss % after Digestion: 51.3 ± 4.0 AB %
[2]; [5]
  Final Concentration: 8.89 ± 0.43 b μmol mL^−1
  Loss % after Digestion: 44.4 ± 2.7 A %
[2]; [6]
  Final Concentration: 9.55 ± 0.40 b μmol mL^−1
  Loss % after Digestion: 40.3 ± 2.5 A %
[2]; [7]
  Final [9,10-Epoxystearate]: 6.50 ± 1.07 a μmol mL^−1
  Loss % after Digestion: 58.8 ± 6.8 D %
[2]; [8]
  Final [9,10-Epoxystearate]: 7.20 ± 0.80 ab μmol mL^−1
  Loss % after Digestion: 54.4 ± 5.0 CD %
[2]; [9]
  Final [9,10-Epoxystearate]: 8.00 ± 0.48 ab μmol mL^−1
  Loss % after Digestion: 49.3 ± 3.0 CD %
[2]; [10]
  Final [9,10-Epoxystearate]: 8.97 ± 0.60 b μmol mL^−1
  Loss % after Digestion: 43.2 ± 3.8 BC %
[2]; [11]
  Final [9,10-Epoxystearate]: 26.16 ± 2.24 a μmol mL^−1
  Loss % after Digestion: 43.2% and 43.2 ± 4.9 BC %
[2]; [12]
  Final [9,10-Epoxystearate]: 30.53 ± 1.48 a μmol mL^−1
  Loss % after Digestion: 33.7 ± 3.2 B %
[2]; [13]
  Final [9,10-Epoxystearate]: 35.06 ± 0.81 b μmol mL^−1
  Loss % after Digestion: 23.8 ± 1.8 A %
[2]; [14]
  Final [9,10-Epoxystearate]: 37.82 ± 1.96 b μmol mL^−1
  Loss % after Digestion: 17.8% and 17.8 ± 4.3 A %
